Measurements: US4309559A, “Sulphonamides useful as pesticides” (FBC Limited, priority 1977, dated 1982)

Assays:
Assay type in all cases: in vivo
[1] = system: Mustard (Sinapis alba); experiment: Soil incorporation (attaclay/sand dust), growth regulatory or herbicidal effects, mustard; settings: 504 h, soil incorporation 26 ppm, 21 days, 0=no effect, 100=complete kill, read-out: growth regulatory or herbicidal effect score
Summary of the method: (§1)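 Scores (0-100, where 100 means complete kill) were given by visual assessment against untreated plants after 21 days in a 22° C controlled environment room with 14 h of 13,000 lux light daily. Seeds had been sown into compost containing the attaclay/sand dust formulation at 26 or 130 ppm w/v.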

[2] = system: Barnyardgrass (Echinochloa crus-galli); experiment: Pre-emergence soil surface spray, barnyardgrass; settings: soil surface spray 2.8 kg/ha, 21 days, 0=no effect, 100=complete kill
Summary of the method: (§2)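 Herbicidal or growth regulatory effects were rated on a 0-100 scale after 21 days under 14 hours per day artificial illumination at 22° C. Before emergence, compost in which seeds had been sown received a surface spray of 2.8 kg active ingredient per hectare, applied in 450 liters per hectare.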

[3] = system: Maize (Zea mays); experiment: Soil incorporation (attaclay/sand dust), growth regulatory or herbicidal effects, maize; settings: 504 h, soil incorporation 26 ppm, 21 days, 0=no effect, 100=complete kill, read-out: growth regulatory or herbicidal effect score
Summary of the method: as §1

[4] = system: Peas (Pisum sativum); experiment: Post-emergence foliar spray, herbicidal/growth regulant response, peas; settings: Lathyrus oleraceus, 168 h, foliar spray 11.2 kg/ha, 7 days, 0=no effect, 100=complete kill, read-out: herbicidal or growth regulant response index
Summary of the method: (§3)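 Seedlings grown in John Innes I compost at 22° C., 65-85% RH, 14 h/day light at 13,000 lux were sprayed 14 days after sowing with compound in 1:1 aqueous acetone at 11.2 kg/ha in 450 liters per hectare. Visual scoring after seven days, 0 = no effect, 100 = complete kill.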

[5] = system: Oat (Avena sativa); experiment: Post-emergence foliar spray, herbicidal/growth regulant response, oat; settings: 168 h, foliar spray 11.2 kg/ha, 7 days, 0=no effect, 100=complete kill, read-out: herbicidal or growth regulant response index
Summary of the method: as §3

[6] = system: Oats (Avena sativa); experiment: Soil incorporation (attaclay/sand dust), growth regulatory or herbicidal effects, oats; settings: 504 h, soil incorporation 26 ppm, 21 days, 0=no effect, 100=complete kill, read-out: growth regulatory or herbicidal effect score
Summary of the method: as §1

[7] = system: Peas (Pisum sativum); experiment: Soil incorporation (attaclay/sand dust), growth regulatory or herbicidal effects, peas; settings: Lathyrus oleraceus, 504 h, soil incorporation 26 ppm, 21 days, 0=no effect, 100=complete kill, read-out: growth regulatory or herbicidal effect score
Summary of the method: as §1

[8] = system: Ryegrass (Lolium perenne); experiment: Post-emergence foliar spray, herbicidal/growth regulant response, ryegrass; settings: 168 h, foliar spray 11.2 kg/ha, 7 days, 0=no effect, 100=complete kill, read-out: herbicidal or growth regulant response index
Summary of the method: as §3

[9] = system: Crabgrass (Digitaria sanguinalis); experiment: Pre-emergence soil surface spray, crabgrass; settings: soil surface spray 2.8 kg/ha, 21 days, 0=no effect, 100=complete kill
Summary of the method: as §2

[10] = system: Linseed (Linum usitatissimum); experiment: Post-emergence foliar spray, herbicidal/growth regulant response, linseed; settings: 168 h, foliar spray 11.2 kg/ha, 7 days, 0=no effect, 100=complete kill, read-out: herbicidal or growth regulant response index
Summary of the method: as §3

CCCS(=O)(=O)N(c1c(C)cccc1C)C(C)C(=O)OCC (stereo not shown) [Example 24, N-(1-[ethoxycarbonyl]ethyl)-2',6'-dimethyl-1-propanesulphonanilide]
pest or weed control at 26 µg/mL [1]: 100% | growth regulatory or herbicidal effect score [2]: 80 | plant injury at 26 µg/mL [3]: 60% | pest or weed control at 11200 g/ha [4]: 20% | plant injury at 11200 g/ha [5]: 30% | plant injury at 26 µg/mL [6]: 60% | pest or weed control at 26 µg/mL [7]: 0% | pest or weed control at 11200 g/ha [8]: 75% | growth regulatory or herbicidal effect score [9]: 100 | pest or weed control at 11200 g/ha [10]: 90%
